# Measured values taken from US20090060984A1, “ANIONIC SURFACTANTS LETHAL TO GRAM-POSITIVE BACTERIA” (priority 2007, published 2009).
# Values joined by “and” are separate entries in the source; they are usually repeats but may differ in a detail not shown here. Equal values may be shown once. Read-outs that look alike come from different tables or passages of the source.
# Key:
# E. coli = details: 24 h contact time
# From the text: (§1) PU formulated at a TDI: PPG mole ratio of 1.5:1 are post treated with water.
# [1] = test system: Staphylococcus aureus ATCC 6538;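 also: bacterial suspension pipetted onto each coated surface, then recovered in PBS, serially diluted and spread on TSA plates to count viable colonies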
# [2] = test system: Escherichia coli ATCC 11229; details: for E. coli on sprayed household surfaces: metal plate, wall paper, vinyl tile, 0.06% silver solution
# Method: The antimicrobial activities of the coatings on coupons and slides are tested against both Gram-positive (Staphylococcus aureus ATCC 6538) and Gram-negative (Escherichia coli ATCC 11229) bacteria. The following set of steps are executed over a four day period, in order to evaluate the coatings for antimicrobial activity.
# (1) Three colonies are picked from a Petri dish that contains refrigerator stock of E. coli and S. aureus. Each of the colonies is placed into a separate test tube of 5 mL of TSB (tryptic soy broth); (2) the TSB cultures are incubated in a heated shaker; the culture is grown overnight at 37° C. while shaking at 175 rpm.
# (1) 500 μL (0.5 mL) of FINAL E. coli bacteria are placed onto the center of each sterilized coating (24 hour); the same is done with S. aureus; (2) the coupons/coatings are stored for 24 hours in sealed pan by stacking Petri dishes on top of one another; (3) 200 mL of sterile water is added to the bottom of each pan; each pan is enclosed with clear saran wrap and aluminum foil; the Pyrex pans containing the coatings are incubated at room temperature for 24 hours; all inoculations of the coatings are performed in the same laminar flow hood as where the sterilized slides are placed into sterile Petri dishes; the prepared bacterial suspension (0.5 ml) is directly pipetted onto the coating of the slide; the spreading of the innoculum across the surface of the coating is observed and noted.
# (1) 500 μL (0.5 mL) of FINAL E. coli bacteria is placed onto the center of each sterilized coating (0 hour); the same is done with S. aureus; (2) after bacteria are added to the 0 hour coatings, each Petri dish (containing the coating) is submerged with 25 mL of PBS; this immersion stops the viable bacteria from continuing to grow; (3) 100 μL of fluid is removed from coatings dish and placed in the middle of a previously labeled TSA plate; this is done to both agar plates labeled with −1 concentration; before removing the fluid, the surface of the coupon is scratched with a sterile loop to activate movement of bacteria; (4) “hockey sticks” are sterilized with ethanol and flame, to spread solution thoroughly; (5) the concentration of bacteria is diluted by removing 500 μL of the fluid in the coupon dish and placing it into a test tube with 4.5 mL of PBS; this solution is diluted in duplicate by removing 100 μL of the fluid and spreading into TSA plates labeled −2; (6) sterilized “hockey sticks” are used to spread solution thoroughly; (7) 500 μL of fluid from 1st tube prepared in step 5 is removed and placed into 4.5 mL of PBS; this dilution is mixed and 100 μL is removed in duplicate and placed into two new TSA plates labeled −3; (8) sterilized “hockey sticks” are used to spread these dilutions thoroughly; (9) steps 1-8 are repeated for each of the coupons or slides.
# S. aureus = details: 24 h contact time
# From the text: as §1
# [3] = 0.01 weight % Ag in PU composition
# [4] = 0.03 weight % Ag in PU composition
# [5] = 0.10 weight % Ag in PU composition
# [6] = 0.30 weight % Ag in PU composition
# [7] = 1.0 weight % Ag in PU composition
# [8] = 3.0 weight % Ag in PU composition
# [9] = acetate sprayed with 0.06% w/w AgAOT/isopropanol, 0 h contact time
# [10] = acetate sprayed with 0.06% w/w AgAOT/isopropanol, 24 h contact time
# [11] = cotton sprayed with 0.06% w/w AgAOT/isopropanol, 0 h contact time
# [12] = cotton sprayed with 0.06% w/w AgAOT/isopropanol, 24 h contact time
# [13] = linen sprayed with 0.06% w/w AgAOT/isopropanol, 0 h contact time
# [14] = linen sprayed with 0.06% w/w AgAOT/isopropanol, 24 h contact time
# [15] = metal plate sprayed with 0.06% Ag+ AgAOT solution, 0 h contact time
# [16] = metal plate sprayed with 0.06% Ag+ AgAOT solution, 24 h contact time
# [17] = polyester sprayed with 0.06% w/w AgAOT/isopropanol, 0 h contact time
# [18] = polyester sprayed with 0.06% w/w AgAOT/isopropanol, 24 h contact time
# [19] = rayon sprayed with 0.06% w/w AgAOT/isopropanol, 0 h contact time
# [20] = rayon sprayed with 0.06% w/w AgAOT/isopropanol, 24 h contact time
# [21] = silk sprayed with 0.06% w/w AgAOT/isopropanol, 0 h contact time
# [22] = silk sprayed with 0.06% w/w AgAOT/isopropanol, 24 h contact time
# [23] = silk sprayed with 0.24% w/w AgAOT/isopropanol, 0 h
# [24] = silk sprayed with 0.24% w/w AgAOT/isopropanol, 24 h
# [25] = vinyl tile sprayed with 0.06% Ag+ AgAOT solution, 0 h contact time
# [26] = vinyl tile sprayed with 0.06% Ag+ AgAOT solution, 24 h contact time
# [27] = wall-paper sprayed with 0.06% Ag+ AgAOT solution, 0 h contact time
# [28] = wall-paper sprayed with 0.06% Ag+ AgAOT solution, 24 h contact time
smiles,measurement,setting,value
CCCCC(CC)COC(=O)CC(C(=O)OCC(CC)CCCC)S(=O)(=O)[O-].[Ag+] (stereo not drawn) [AgAOT],E. coli growth on PU composition,E. coli; [3],+
same,E. coli growth on PU composition,E. coli; [4],+
same,E. coli growth on PU composition,E. coli; [5],+
same,E. coli growth on PU composition,E. coli; [6],−
same,E. coli growth on PU composition,E. coli; [7],−
same,E. coli growth on PU composition,E. coli; [8],−
same,Silver level providing complete inhibition,E. coli; PU composition,0.30 % w/w silver
same,"S. aureus CFU/mL, Average",[1]; [9],0.00E+00 CFU/mL
same,"S. aureus CFU/mL, Run #1-#4",[1]; [9],0.00E+00 CFU/mL
same,"S. aureus CFU/mL, Average",[1]; [10],0.00E+00 CFU/mL
same,"S. aureus CFU/mL, Run #1-#4",[1]; [10],0.00E+00 CFU/mL
same,"S. aureus CFU/mL, Average",[1]; [11],0.00E+00 CFU/mL
same,"S. aureus CFU/mL, Run #1-#4",[1]; [11],0.00E+00 CFU/mL
same,"S. aureus CFU/mL, Average",[1]; [12],0.00E+00 CFU/mL
same,"S. aureus CFU/mL, Run #1-#4",[1]; [12],0.00E+00 CFU/mL
same,"S. aureus CFU/mL, Average",[1]; [13],1.24E+04 CFU/mL
same,"S. aureus CFU/mL, Average",[1]; [14],0.00E+00 CFU/mL
same,"S. aureus CFU/mL, Run #1-#4",[1]; [14],0.00E+00 CFU/mL
same,"S. aureus CFU/mL, Avg",[1]; [15],3.90E+04 CFU/mL
same,"S. aureus CFU/mL, Avg",[1]; [16],0.00E+00 CFU/mL
same,"S. aureus CFU/mL, Run #1-#2",[1]; [16],0.00E+00 CFU/mL
same,S. aureus on sprayed household surfaces,"[1]; metal plate, wall paper, vinyl tile, 0.06% silver solution, 24 h contact time",Complete killing is obtained for each of the surfaces
same,"S. aureus CFU/mL, Average",[1]; [17],0.00E+00 CFU/mL
same,"S. aureus CFU/mL, Run #1-#4",[1]; [17],0.00E+00 CFU/mL
same,"S. aureus CFU/mL, Average",[1]; [18],0.00E+00 CFU/mL
same,"S. aureus CFU/mL, Run #1-#4",[1]; [18],0.00E+00 CFU/mL
same,"S. aureus CFU/mL, Average",[1]; [19],1.88E+02 CFU/mL
same,"S. aureus CFU/mL, Average",[1]; [20],0.00E+00 CFU/mL
same,"S. aureus CFU/mL, Run #1-#4",[1]; [20],0.00E+00 CFU/mL
same,Inhibition of S. aureus growth,"[1]; rayon, 0.06% Ag AgAOT/isopropanol, 0 h contact time",3 orders of magnitude
same,"S. aureus CFU/mL, Average",[1]; [21],1.45E+05 CFU/mL
same,"S. aureus CFU/mL, Run #1-#2",[1]; [21],1.80E+05 CFU/mL and 1.10E+05 CFU/mL
same,"S. aureus CFU/mL, Average",[1]; [22],9.13E+03 CFU/mL
same,"S. aureus CFU/mL, Average",[1]; [23],1.35E+05 CFU/mL
same,"S. aureus CFU/mL, Average",[1]; [24],0.00E+00 CFU/mL
same,"S. aureus CFU/mL, Run #1-#4",[1]; [24],0.00E+00 CFU/mL
same,"S. aureus CFU/mL, Avg",[1]; [25],1.25E+05 CFU/mL
same,"S. aureus CFU/mL, Avg",[1]; [26],0.00E+00 CFU/mL
same,"S. aureus CFU/mL, Run #1-#2",[1]; [26],0.00E+00 CFU/mL
same,"S. aureus CFU/mL, Avg",[1]; [27],9.75E+04 CFU/mL
same,"S. aureus CFU/mL, Avg",[1]; [28],0.00E+00 CFU/mL
same,"S. aureus CFU/mL, Run #1-#2",[1]; [28],0.00E+00 CFU/mL
same,E. coli growth on sprayed fabrics,"[2]; 0.06% Ag AgAOT/isopropanol, 24 h contact time","With the single exception of silk, complete eradication is obtained for each of the other fabrics"
same,"E. coli CFU/mL, Average",[2]; [9],3.08E+05 CFU/mL
same,"E. coli CFU/mL, Average",[2]; [10],0.00E+00 CFU/mL
same,"E. coli CFU/mL, Run #1-#4",[2]; [10],0.00E+00 CFU/mL
same,"E. coli CFU/mL, Average",[2]; [11],2.53E+05 CFU/mL
same,"E. coli CFU/mL, Average",[2]; [12],0.00E+00 CFU/mL
same,"E. coli CFU/mL, Run #1-#4",[2]; [12],0.00E+00 CFU/mL
same,"E. coli CFU/mL, Average",[2]; [13],1.46E+05 CFU/mL
same,"E. coli CFU/mL, Average",[2]; [14],0.00E+00 CFU/mL
same,"E. coli CFU/mL, Run #1-#4",[2]; [14],0.00E+00 CFU/mL
same,"E. coli CFU/mL, Avg",[2]; [15],3.10E+05 CFU/mL
same,"E. coli CFU/mL, Run #1-#2",[2]; [15],3.40E+05 CFU/mL and 2.80E+05 CFU/mL
same,"E. coli CFU/mL, Avg",[2]; [16],0.00E+00 CFU/mL
same,"E. coli CFU/mL, Run #1-#2",[2]; [16],0.00E+00 CFU/mL
same,E. coli on sprayed household surfaces,[2]; 0 h contact time (5-10 minutes),does not significantly attenuate E. coli growth
same,E. coli on sprayed household surfaces,[2]; 24 h contact time,eradicated on each of the samples
same,"E. coli CFU/mL, Average",[2]; [17],9.10E+04 CFU/mL
same,"E. coli CFU/mL, Average",[2]; [18],0.00E+00 CFU/mL
same,"E. coli CFU/mL, Run #1-#4",[2]; [18],0.00E+00 CFU/mL
same,"E. coli CFU/mL, Average",[2]; [19],2.88E+05 CFU/mL
same,"E. coli CFU/mL, Average",[2]; [20],3.25E+05 CFU/mL
same,"E. coli CFU/mL, Average",[2]; [21],2.55E+05 CFU/mL
same,"E. coli CFU/mL, Run #1-#2",[2]; [21],2.70E+05 CFU/mL and 2.40E+05 CFU/mL
same,"E. coli CFU/mL, Average",[2]; [22],2.75E+07 CFU/mL
same,"E. coli CFU/mL, Average",[2]; [23],3.38E+05 CFU/mL
same,"E. coli CFU/mL, Run #1-#4",[2]; [23],3.20E+05 CFU/mL and 3.60E+05 CFU/mL and 3.10E+05 CFU/mL
same,"E. coli CFU/mL, Average",[2]; [24],0.00E+00 CFU/mL
same,"E. coli CFU/mL, Run #1-#4",[2]; [24],0.00E+00 CFU/mL
same,"E. coli CFU/mL, Avg",[2]; [25],2.60E+05 CFU/mL
same,"E. coli CFU/mL, Run #1-#2",[2]; [25],2.30E+05 CFU/mL and 2.90E+05 CFU/mL
same,"E. coli CFU/mL, Avg",[2]; [26],0.00E+00 CFU/mL
same,"E. coli CFU/mL, Run #1-#2",[2]; [26],0.00E+00 CFU/mL
same,"E. coli CFU/mL, Avg",[2]; [27],1.94E+05 CFU/mL
same,"E. coli CFU/mL, Avg",[2]; [28],0.00E+00 CFU/mL
same,"E. coli CFU/mL, Run #1-#2",[2]; [28],0.00E+00 CFU/mL
same,S. aureus growth on PU composition,S. aureus; [3],+
same,S. aureus growth on PU composition,S. aureus; [4],+
same,S. aureus growth on PU composition,S. aureus; [5],+
same,S. aureus growth on PU composition,S. aureus; [6],−
same,S. aureus growth on PU composition,S. aureus; [7],−
same,S. aureus growth on PU composition,S. aureus; [8],−
same,Silver level providing complete inhibition,S. aureus; PU composition,0.30 % w/w silver
